# “Also recorded” adds a separate entry of the source.
# Assays:
# [1] = Ocular toxicity after chronic topical dosing (slit-lamp, lissamine green); type: in vivo; settings: chronically treated mice
# Procedure: Lissamine green staining. To assess corneal epithelial disruption, 5 μL of lissamine green (LG) dye (1%) was applied to the ocular surface of isofluorane-anesthetized mice. Photographs of the eye were taken using a Nikon Digital camera adapted to an Olympus Zoom Stereo Microscope (Olympus, Center Valley, Pa., USA). Each corneal quadrant was scored on a 3-point scale by one blinded, trained observer, with the extent of staining in each quadrant classified as: 0, no staining; 1, sporadic (involving <25% of the total surface) staining; grade 2, diffuse punctate staining (25-75%); and grade 3, coalesced punctate staining (>75%). The total grade is reported as the sum of scores from all four quadrants, ranging from 0 to 12.
# cAMP = cAMP GloSensor luminescence assay in FRT cells; type: cell-based, rat; settings: 5 μM, 10 min
# Procedure: cAMP assay. Intracellular cAMP activity was measured using a GloSensor luminescence assay (Promega Corp., Madison, Wisconson, USA). FRT null cells were stably transfected with the pGloSensor cAMP plasmid and plated onto white 96-well microplates and grown to confluence. Cells were washed three times with PBS and incubated with 5 μM CFTRact-J027 for 10 min in the absence and presence of 100 nM forskolin. cAMP was assayed according to the manufacturer's instructions.
# cAMP and cytotoxicity assays. Intracellular cAMP activity was measured using a GloSensor luminescence assay (Promega Corp., Madison, Wis., USA). FRT cells stably transfected with the pGloSensor cAMP plasmid (Promega Corp.) were cultured in white 96-well microplates (Corning Costar) overnight. Cells were then washed three times with PBS and incubated with 5 μM test compound for 10 min in the absence and presence of 100 nM forskolin.
# [2] = 7-day chronic administration toxicity study; type: in vivo, mouse
# Source text: Chronic administration and toxicity studies.
# human wild-type CFTR = molecular target: T1, human wild-type CFTR (Homo sapiens, UniProt P13569); assay: Short-circuit current in FRT cells expressing wild-type human CFTR; type: cell-based; settings: short-circuit current, wild-type CFTR
# T1 construct: expressed in transfected cells
# T1 sequence (P13569 whole entry): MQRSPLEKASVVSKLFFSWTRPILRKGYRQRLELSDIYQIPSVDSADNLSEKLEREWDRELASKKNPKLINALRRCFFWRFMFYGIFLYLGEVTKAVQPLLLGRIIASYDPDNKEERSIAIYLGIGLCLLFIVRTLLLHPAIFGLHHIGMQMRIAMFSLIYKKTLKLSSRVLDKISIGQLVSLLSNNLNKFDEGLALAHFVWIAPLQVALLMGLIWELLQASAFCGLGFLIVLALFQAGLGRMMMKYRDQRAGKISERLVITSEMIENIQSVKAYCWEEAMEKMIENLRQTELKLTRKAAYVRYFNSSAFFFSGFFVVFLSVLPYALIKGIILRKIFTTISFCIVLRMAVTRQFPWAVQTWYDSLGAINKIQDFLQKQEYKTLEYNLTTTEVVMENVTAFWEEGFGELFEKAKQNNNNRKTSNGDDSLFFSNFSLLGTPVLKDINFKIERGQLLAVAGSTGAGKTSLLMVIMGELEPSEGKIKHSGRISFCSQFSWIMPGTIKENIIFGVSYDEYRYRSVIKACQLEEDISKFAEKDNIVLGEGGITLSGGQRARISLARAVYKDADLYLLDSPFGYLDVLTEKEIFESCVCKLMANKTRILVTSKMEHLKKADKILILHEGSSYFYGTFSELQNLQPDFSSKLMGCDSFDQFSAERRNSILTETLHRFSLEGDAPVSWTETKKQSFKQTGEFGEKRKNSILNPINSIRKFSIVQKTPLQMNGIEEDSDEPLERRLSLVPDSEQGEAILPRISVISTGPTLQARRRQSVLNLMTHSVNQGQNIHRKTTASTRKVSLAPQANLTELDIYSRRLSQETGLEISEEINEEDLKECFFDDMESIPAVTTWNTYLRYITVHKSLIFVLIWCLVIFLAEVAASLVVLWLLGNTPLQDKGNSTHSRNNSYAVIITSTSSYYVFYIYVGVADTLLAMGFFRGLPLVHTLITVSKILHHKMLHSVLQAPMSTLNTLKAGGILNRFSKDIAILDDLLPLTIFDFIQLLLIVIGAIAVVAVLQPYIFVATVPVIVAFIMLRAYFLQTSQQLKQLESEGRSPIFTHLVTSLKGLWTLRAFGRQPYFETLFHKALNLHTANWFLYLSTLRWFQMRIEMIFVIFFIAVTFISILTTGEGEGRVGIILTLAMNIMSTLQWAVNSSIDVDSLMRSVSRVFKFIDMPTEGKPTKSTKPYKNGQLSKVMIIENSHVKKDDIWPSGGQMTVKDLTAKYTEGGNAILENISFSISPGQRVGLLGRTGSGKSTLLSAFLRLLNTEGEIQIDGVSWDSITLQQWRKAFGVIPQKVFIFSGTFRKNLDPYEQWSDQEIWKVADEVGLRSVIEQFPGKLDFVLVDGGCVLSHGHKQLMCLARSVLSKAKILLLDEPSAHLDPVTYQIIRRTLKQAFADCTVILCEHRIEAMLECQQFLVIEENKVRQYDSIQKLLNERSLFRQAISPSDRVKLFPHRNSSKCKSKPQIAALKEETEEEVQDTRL
# Procedure: Short-circuit current measurement. Short-circuit current was measured in FRT cells stably expressing wild-type human CFTR cultured on porous filters as described. The basolateral solution contained 130 mM NaCl, 2.7 mM KCl, 1.5 mM KH2PO4, 1 mM CaCl2, 0.5 mM MgCl2, 10 mM glucose, and 10 mM Na-HEPES (pH 7.3, 37° C.). In the apical solution 65 mM NaCl was replaced by Na gluconate, and CaCl2 was increased to 2 mM, and the basolateral membrane was permeabilized with 250 μg/ml amphotericin B. Short-circuit current was measured in freshly harvested adult mouse colon at 37° C. using symmetrical Krebs-bicarbonate buffer.
# Short-circuit current. Fischer rat thyroid (FRT) cells stably expressing wild-type human CFTR were cultured on Snapwell inserts (Corning Costar, Corning N.Y., USA) for short-circuit current (Isc) measurements. After 6-9 days in culture, when the transepithelial resistance was >1000 Ω/cm^2, the inserts were mounted in an Ussing chamber system (World Precision Instruments, Sarasota, Fla., USA). The basolateral solution contained 130 mM NaCl, 2.7 mM KCl, 1.5 mM KH2PO4, 1 mM CaCl2, 0.5 mM MgCl2, 10 mM glucose, and 10 mM Na-HEPES (pH 7.3). In the apical bathing solution, 65 mM NaCl was replaced by Na gluconate, and CaCl2 was increased to 2 mM. Both solutions were bubbled with air and maintained at 37° C. The basolateral membrane was permeabilized with 250 μg/ml amphotericin B (26, 27). Hemichambers were connected to a DVC-1000 voltage clamp via Ag/AgCl electrodes and 3 M KCl agar bridges for Isc recording.
compound,measurement,setting,value
"Nc1ccc([N+](=O)[O-])cc1-c1nc2ccccc2n(Cc2ccccc2)c1=O [CFTRact-J027, 3-(2-amino-5-nitrophenyl)-1-benzylquinoxalin-2(1H)-one]","LG staining, corneal or conjunctival epithelial disruption",[1],no corneal or conjunctival epithelial disruption
same,ocular toxicity by slit-lamp evaluation,[1],no signs of ocular toxicity
same,"cellular cAMP elevation, compound alone",cAMP,without causing elevation of cytoplasmic cAMP; also recorded: does not elevate cellular cAMP
same,cAMP when added together with forskolin,cAMP; forskolin 100 nM,does not further increase cAMP
same,in vivo toxicity after chronic administration,"[2]; 7-day study, 10 mg/kg oral, 10 mg/kg",did not show significant; also recorded: without apparent toxicity
same,major serum chemistry and blood parameters,[2]; 7-day treated mice,did not affect
same,CFTR activation (in words),human wild-type CFTR,fully activated CFTR chloride conductance
